Drawing on ChEMBL document CHEMBL4627288, “Recent advances in TRPV4 agonists and antagonists” (Bioorg Med Chem Lett, 2020), this text covers EC50 and IC50 for six molecules.

The target in assay [1] is Transient receptor potential cation channel subfamily V member 4 (Mus musculus, UniProt Q9EPK8). The experiment in a line: Agonist activity at mouse TRPV4.
Assay [2] has as its target T1, Transient receptor potential cation channel subfamily V member 4 (Homo sapiens, UniProt Q9HBA0). The experiment in a line: Antagonist activity at human TRPV4.
Assay [3] concerns the target T1, Transient receptor potential cation channel subfamily V member 4. Description: Antagonist activity at TRPV4 (unknown origin).

The EC50 is the midpoint of the concentration-response curve. The IC50 is the midpoint of a concentration-inhibition curve. Low values mean greater potency in that assay, high ones weaker potency in that assay.

T1 sequence (Q9HBA0 whole entry): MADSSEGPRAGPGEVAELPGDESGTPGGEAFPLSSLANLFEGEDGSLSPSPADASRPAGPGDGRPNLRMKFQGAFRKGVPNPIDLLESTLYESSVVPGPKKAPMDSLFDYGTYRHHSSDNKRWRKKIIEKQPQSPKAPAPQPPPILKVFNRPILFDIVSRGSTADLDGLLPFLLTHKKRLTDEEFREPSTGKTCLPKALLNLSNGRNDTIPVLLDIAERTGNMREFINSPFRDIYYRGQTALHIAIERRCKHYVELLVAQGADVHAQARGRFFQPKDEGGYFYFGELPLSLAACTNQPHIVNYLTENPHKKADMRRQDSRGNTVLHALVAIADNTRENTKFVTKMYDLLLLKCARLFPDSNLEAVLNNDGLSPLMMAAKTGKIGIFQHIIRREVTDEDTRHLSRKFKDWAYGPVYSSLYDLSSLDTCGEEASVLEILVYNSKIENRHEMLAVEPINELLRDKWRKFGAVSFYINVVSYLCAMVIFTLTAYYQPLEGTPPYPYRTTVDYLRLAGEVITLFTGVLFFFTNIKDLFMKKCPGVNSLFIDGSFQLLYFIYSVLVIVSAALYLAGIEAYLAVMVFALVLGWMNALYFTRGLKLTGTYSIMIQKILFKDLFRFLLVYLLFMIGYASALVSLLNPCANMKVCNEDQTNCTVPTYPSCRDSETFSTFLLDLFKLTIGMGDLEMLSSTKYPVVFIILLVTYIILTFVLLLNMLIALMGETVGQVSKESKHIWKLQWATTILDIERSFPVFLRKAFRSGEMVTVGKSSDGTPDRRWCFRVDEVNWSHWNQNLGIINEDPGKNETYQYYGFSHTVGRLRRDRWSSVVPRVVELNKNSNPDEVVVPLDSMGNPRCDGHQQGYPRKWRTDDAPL
Sequence of Transient receptor potential cation channel subfamily V member 4 (Mus musculus, UniProt Q9EPK8) (Q9EPK8 whole entry): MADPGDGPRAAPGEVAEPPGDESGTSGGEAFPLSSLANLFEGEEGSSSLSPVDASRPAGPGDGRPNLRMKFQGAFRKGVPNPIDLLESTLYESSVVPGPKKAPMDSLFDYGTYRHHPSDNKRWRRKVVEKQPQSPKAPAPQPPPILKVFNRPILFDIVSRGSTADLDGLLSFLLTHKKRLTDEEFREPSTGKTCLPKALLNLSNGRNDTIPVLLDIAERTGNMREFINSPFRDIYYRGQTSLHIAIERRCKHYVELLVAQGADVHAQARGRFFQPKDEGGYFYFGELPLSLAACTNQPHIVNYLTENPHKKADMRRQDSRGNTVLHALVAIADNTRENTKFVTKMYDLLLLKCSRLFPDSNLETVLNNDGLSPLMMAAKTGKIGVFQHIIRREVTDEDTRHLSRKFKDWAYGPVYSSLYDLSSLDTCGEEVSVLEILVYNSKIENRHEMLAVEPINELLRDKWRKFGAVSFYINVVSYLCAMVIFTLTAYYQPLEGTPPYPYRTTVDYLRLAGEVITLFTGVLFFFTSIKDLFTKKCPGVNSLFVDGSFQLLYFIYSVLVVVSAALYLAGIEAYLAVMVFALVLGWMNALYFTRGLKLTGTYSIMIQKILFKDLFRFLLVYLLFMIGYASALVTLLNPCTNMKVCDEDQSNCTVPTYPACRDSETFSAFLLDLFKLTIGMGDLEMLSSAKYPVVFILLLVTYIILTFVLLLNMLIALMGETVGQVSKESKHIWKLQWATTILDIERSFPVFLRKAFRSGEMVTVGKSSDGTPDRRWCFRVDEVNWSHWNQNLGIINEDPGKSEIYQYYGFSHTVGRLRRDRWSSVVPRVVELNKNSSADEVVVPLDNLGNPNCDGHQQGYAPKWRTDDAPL

For the molecule `CCCCC/C=C\C/C=C\C/C=C\CC1OC1CCCC(=O)O` (stereo unspecified), the EC50 in assay [1] was found to be 150 nM. In assay [2], `C/C=C/C=C/c1c(CC=C(C)C)cc2c(c1[C@H](Nc1ccccc1C(=O)O)[C@H]1c3c(CC=C(C)C)cc4c(c3[C@@H]3OC(=O)c5ccccc5N3[C@H]1/C=C/C)OC(C)(C)[C@H](O)C4=O)OC(C)(C)[C@@H](O)C2=O` (racemic) registered an IC50 of 50.8 nM. For the molecule `O=[N+]([O-])c1cc(Cl)ccc1S(=O)(=O)N1CCN(Cc2ccccc2)CC1`, a half-maximal effect in assay [1] (EC50) was put at 770 nM.

`C/C=C(\C)[C@H]1C(C)=C[C@H]2C[C@@H](C)C[C@@H](C(=O)O)[C@@H]2[C@@]1(C)C(=O)c1cccnc1`: the IC50 in assay [2] came to 81800 nM. In turn, `C/C=C/C=C/c1c(CC=C(C)C)cc(CC=C(C)C)c(O)c1CO` came in with an IC50 in assay [2] of 70000 nM. `N#Cc1ccc(OCC2(O)CN(S(=O)(=O)c3ccc(Cl)cc3Cl)C2)cc1F` came in with an IC50 in assay [3] of 4 nM.
